Marks after values point to notes of the source that are not given here.
Key:
[1] = system: OA mouse model (surgical destabilization of the medial meniscal ligament, DMM); test: Activity wheel use after DMM surgery, topical wogonin cream (Example 1); type: in vivo
Experimental: The use of wogonin for the treatment of osteoarthritic (OA) pain was investigated. Specifically, the benefit of using small doses of wogonin applied topically in a cream with penetration enhancers was investigated. The cream formulation shown in Table 2 was used in this study.
(§1) An OA mouse model was used to determine the efficacy of wogonin treatment. OA-like disease was induced by surgical destabilization of the medial meniscal ligament (DMM) of laboratory mice. Repair of the knee was assessed using the Modified Mankin Score which is widely accepted as the way to objectively compare OA progression by histological evaluation of a knee joint (See Larkin D J et al., Frontiers in physiology. 2013; 4:121 and Mankin H J. The New England journal of medicine. 1974; 291(24):1285-92). The mice were housed in activity wheel cages linked to a computer for activity tracking throughout the duration of the experiment. Twenty-four hours after surgical intervention the following treatments were applied topically to the affected knee: 0.00000142 g wogonin (500 μM wogonin) (n=6); 0.0000000028 g wogonin (10 μM wogonin) (n=6); and 10 μl vehicle (n=6). Treatment was applied every third day for 28 days.
At day 28 this pattern was repeated.

OA mouse model (DMM) [2] = test: Modified Mankin score / histological evaluation of knee joint after DMM surgery (Example 1); type: in vivo
Experimental: as §1
(§2) While the wheel use data were encouraging, inhibiting inflammation alone and blocking pain, is insufficient to block the progression of OA. At the conclusion of the experiment (day 28) mice were sacrificed, knees collected, fixed and studied for Modified Mankin score and HtrA1 expression as previously reported in Spencer K MS and Jeffrey Z Kartchner W. Journal of Arthritis. 2015; 04(03). HtrA1 is the first in the biomarker cascade that is associated with OA progression.
(§3) Mouse knee OA was induced by surgical destabilization of the medial meniscal ligament (DMM surgery) and mice were treated with 10 μM of wogonin. Controls were DMM plus vehicle. […] Note the fissure and rough articular cartilage surface (see arrows) in the control knee.

HtrA1 = HtrA1 immunohistochemical staining in knee joints after DMM surgery (Example 1); type: in vivo, mouse; details: knees treated with 10 μM wogonin, day 28
Description: as §2, §3

OA mouse model (DMM) [3] = test: Activity wheel use after DMM surgery, wogonin in DMSO or in cream (Example 2); type: in vivo
Experimental: (§4) A second experiment using small doses of wogonin applied topically either in DMSO or in a cream with penetration enhancers was conducted. In this study, OA was induced by DMM surgery. Twenty four hours after surgery treatment was applied to the affected knee. The treatments included 0.00000142 g wogonin in 10 μl DMSO (500 μM wogonin) applied to the skin at the location of patellar tendon (n=5); 10 μl DMSO applied to the skin at the location of patellar tendon (n=5); 0.0000000028 g wogonin (10 μl G2 Cream E/10 μM wogonin) to the skin at the location of the patellar tendon (n=5). Treatment was applied every third day for 28 days. Immediately after surgery, mice were placed in an activity wheel cage in which wheel use was recorded on a computer. […] At day 28 this pattern was repeated.

OA mouse model (DMM) [4] = test: Biomarker and Mankin scoring of knees (Example 2); type: in vivo; details: 500 μM (DMSO) vs 10 μM (cream) wogonin
Experimental: as §4
Again, below 1 μM and there would be insufficient wogonin to have an effect. Above 500 μM and there would be too much suppression of inflammation and ceramides. TGF-β1 is inhibited and chondrocytes can't return to homeostasis, […].

[5] = system: TGF-β1 gene expression in human chondrocytes (TC28a2); test: qRTPCR of TGF-β1 gene expression in human chondrocytes; type: cell-based
Experimental: Human chondrocytes (TC28a2 Sigma-Aldrich, St. Louis, MO, USA) were cultured in EmbryoMax® DMEM (SLM-120 B Millipore, St. Louis, MO, USA) supplemented with 10% Fetal Calf Serum (F-2442-50 ML Sigma-Aldrich, St. Louis, MO, USA) to 80% confluence. Treatments consisted of: • 1. Untreated plate: Remove old media and replace with 10 mL fresh media. Incubate 4 hours. Remove media, rinse 3× with PBS and collect total RNA according to manufacturer's protocol ([…] ZYMO Research, Irvine, CA, USA). • 2. Treat with 10 μM wogonin (dissolved in DMSO). Remove old media and replace with 10 mL conditioned media containing wogonin. Incubate 4 hours. Remove media, rinse 3× with PBS and collect total RNA according to manufacturer's protocol ([…] ZYMO Research, Irvine, CA, USA). • 3. Treat with 1 ng/mL IL-1β (dissolved in dds water). Remove old media and replace with 10 mL conditioned media containing IL-1β. Incubate 4 hours. Remove media, rinse 3× with PBS and collect total RNA according to manufacturer's protocol ([…] ZYMO Research, Irvine, CA, USA). • 4. Treat with 10 μM wogonin; wait 1 hour and add 1 ng/mL IL-1β, incubate 4 hours. Remove old media and replace with 10 mL conditioned media containing wogonin. Incubate 1 hour. […] Quantitative Real-time Polymerase Chain Reaction (qRTPCR) was performed using the Life Technologies One Step Plus Sequence Detection System and Software (Life Technologies). […]

[6] = system: BBS 3 gene expression in human chondrocytes (TC28a2); test: qRTPCR of BBS 3 gene expression in human chondrocytes; type: cell-based
Experimental: Human chondrocytes (TC28a2 Sigma-Aldrich, St. Louis, MO, USA) were cultured in EmbryoMax® DMEM (SLM-120 B Millipore, St. Louis, MO, USA) supplemented with 10% Fetal Calf Serum (F-2442-50 ML Sigma-Aldrich, St. Louis, MO, USA) to 80% confluence. Treatments consisted of: • 1. Untreated plate: Remove old media and replace with 10 mL fresh media. Incubate 4 hours. Remove media, rinse 3× with PBS and collect total RNA according to manufacturer's protocol ([…] ZYMO Research, Irvine, CA, USA). • 2. Treat with 10 μM wogonin (dissolved in DMSO). Remove old media and replace with 10 mL conditioned media containing wogonin. Incubate 4 hours. Remove media, rinse 3× with PBS and collect total RNA according to manufacturer's protocol ([…] ZYMO Research, Irvine, CA, USA). • 3. Treat with 1 ng/mL IL-1β (dissolved in dds water). Remove old media and replace with 10 mL conditioned media containing IL-1β. Incubate 4 hours. Remove media, rinse 3× with PBS and collect total RNA according to manufacturer's protocol ([…] ZYMO Research, Irvine, CA, USA). • 4. Treat with 10 μM wogonin; wait 1 hour and add 1 ng/mL IL-1β, incubate 4 hours. Remove old media and replace with 10 mL conditioned media containing wogonin. Incubate 1 hour. Add 10 μL 1 ng/mL IL-1β. Pipet media up and down in cell culture dish 3× gently to mix. Incubate 4 hours. Remove media, rinse 3× with PBS and collect total RNA according to manufacturer's protocol ([…] ZYMO Research, Irvine, CA, USA). cDNA was made from total RNA according to manufacturer's protocol (1725038 BIO-RAD, Hercules, CA, USA). Quantitative Real-time Polymerase Chain Reaction (qRTPCR) was performed using the Life Technologies One Step Plus Sequence Detection System and Software (Life Technologies). SYBR-green-based PrimeTime assays (IDT) were used to detect human TGF-β1 and BBS 3.

mouse formalin test = details: intraperitoneal injection, 200 mg/kg; cited from earlier work
MMP-3 = details: intra-articular injection, inflammation initiated by IL-1β; cited from earlier work

## COc1c(O)cc(O)c2c(=O)cc(-c3ccccc3)oc12 [Wogonin, 5,7-dihydroxy-8-methoxyflavone]
[1]; 10 μM wogonin cream topical, Day 7
  Average Wheel Use: 12443**
[1]; 10 μM wogonin cream topical, Day 7, listed as wogonin
  Average Wheel Use: significantly higher wheel use than control or vehicle alone
[1]; 10 μM wogonin cream topical, Day 14
  Average Wheel Use: 22000***
[1]; 10 μM wogonin cream topical, Day 14, listed as wogonin
  Average Wheel Use: higher activity wheel use than those receiving 500 μM
[1]; 10 μM wogonin cream topical, Day 28
  Average Wheel Use: 19358**
[1]; 500 μM wogonin cream topical to knee every third day, Day 7
  Average Wheel Use: 12608**
[1]; 500 μM wogonin cream topical to knee every third day, Day 7, listed as wogonin
  Average Wheel Use: significantly higher wheel use than control or vehicle alone
[1]; 500 μM wogonin cream topical, Day 14
  Average Wheel Use: 17910**
[1]; 500 μM wogonin cream topical, Day 28
  Average Wheel Use: 16528*
OA mouse model (DMM) [2]; 1 μM wogonin applied topically
  OA as measured by Modified Mankin score: sufficient to significantly reduce OA
OA mouse model (DMM) [2]; 10 μM compared to 500 μM wogonin
  Benefit in reducing the progression of OA: greater benefit
OA mouse model (DMM) [2]; 10 μM wogonin topical vs DMM plus vehicle, day 28
  Modified Mankin score of OA: statistically (p>0.05) lower
OA mouse model (DMM) [2]; dosages above 500 μM wogonin
  Effect on inflammation and biomarkers: too much suppression of inflammation and biomarkers
OA mouse model (DMM) [2]; dosages below 1 μM wogonin
  Effect on OA: insufficient to have an effect
OA mouse model (DMM) [2]; knees treated with 10 μM wogonin, day 28
  Articular cartilage surface (histology): essentially normal
HtrA1
  Expression of HtrA1 (immunohistochemical staining): essentially absent
OA mouse model (DMM) [3]; 500 μM wogonin in 10 μl DMSO topical, Day 7, listed as Wogonin + DMSO
  Average (activity wheel use): 12608*
OA mouse model (DMM) [3]; 500 μM wogonin in 10 μl DMSO topical, Day 7, listed as wogonin in DMSO
  Average (activity wheel use): significantly higher wheel use than DMSO only
OA mouse model (DMM) [3]; 500 μM wogonin in DMSO topical, Day 14, listed as DMSO+wogonin
  Average (activity wheel use): no difference
OA mouse model (DMM) [3]; 500 μM wogonin in DMSO topical, Day 14, listed as Wogonin + DMSO
  Average (activity wheel use): 15191
OA mouse model (DMM) [3]; 500 μM wogonin in DMSO topical, Day 28
  Average (activity wheel use): 15492
OA mouse model (DMM) [4]
  Biomarker and Mankin scoring of knees: higher dose of wogonin is beneficial initially but the lower dose remained beneficial throughout the experiment
[5]; 10 μM wogonin pre-treatment 1 hour, then 1 ng/mL IL-1β 4 hours
  Drop in gene expression of TGF-β1: < 40%
[6]; 10 μM wogonin pre-treatment, then 1 ng/mL IL-1β
  Lowering of the wogonin response (BBS 3 gene expression) by IL-1β: almost half
[6]; 10 μM wogonin, 4 hours
  Increase in gene expression of BBS 3: 125%
[6]; wogonin, human chondrocytes
  Increase in BBS 3 expression: 1.25 fold
Mouse formalin test
  Pain symptoms in mouse formalin test: improvement of pain symptoms
MMP-3
  MMP-3 expression in articular cartilage: decreased MMP-3 expression

## IL-1β: pro-inflammatory cytokine used at 1 ng/mL to treat human chondrocytes [reference compound]
[5]; 1 ng/mL IL-1β, 4 hours, vs untreated
  Drop in gene expression of TGF-β1: 80%
[6]; 1 ng/mL IL-1β alone, 4 hours
  Effect on BBS 3 gene expression: no effect
